What was measured:
[1] = test system: brown planthoppers (Nilaparvata lugens); assay: Test method 4: foliar spray on rice seedling, brown planthopper larvae; type: in vivo; settings: 144 h, read-out: mortality of insects
Experimental: (§1) Test compounds are made to a formulation according to a similar method to that described in the Formulation Example 5, and thereto is added water containing 0.03 v/v % of Shindain (registered trademark) to prepare a diluted solution containing a prescribed concentration of the test compound.
Rice (Oryza sativa) seedling (on the developmental stage of the second true leaf) is planted in a cup, and the diluted solutions are sprayed into the seedling at a ratio of 10 mL/seedling. Thereafter, twenty (20) of 3rd instar larvae of brown planthoppers (Nilaparvata lugens) are released onto the rice leaves. After 6 days, the number of the surviving insects is examined and the mortality of insects is calculated by the following equation.

[2] = test system: western flower thrips (Frankliniella occidentalis); assay: Test method 5: sprayed cucumber leaf, western flower thrips larvae; type: in vivo; settings: 144 h, read-out: mortality of insects
Experimental: as §1
Cucumber (Cucumber sativus) seedling (on the developmental stage of the second true leaf) is planted in a cup, and the diluted solutions are sprayed into the seedling at a ratio of 10 mL/seedling. Thereafter, the second true leaf is cut, and the cut leaf was placed in the cup, and approximately twenty (20) of larvae of western flower thrips (Frankliniella occidentalis) larvae are released onto the leaf. After 6 days, the number of the surviving insects is examined and the mortality of insects is calculated by the following equation.

[3] = test system: silverleaf whiteflies (Bemisia tabaci); assay: Test method 6: foliar spray on tomato seedling with silverleaf whitefly larvae; settings: in Solanum lycopersicum, 168 h, read-out: mortality of insects
[4] = test system: cotton aphids (Aphis gossypii); assay: Test method 3: foliar spray on cucumber seedling infested with cotton aphids; settings: read-out: mortality of insects
[5] = test system: southern root-knot nematode (Meloidogyne incognita); assay: Test method 7: soil mixing and irrigation, tomato seedlings in nematode-polluted soil, root-knot index by Zeck; type: in vivo; settings: 1,000 ppm
Experimental: Test compounds 60 mg are dissolved in acetone 600 μL containing Tween (Registered trade mark) by 5%, and thereto is added water to prepare a diluted solution containing a prescribed concentration of the test compound.
The diluted solution 20 mL are soil which is polluted with southern root-knot nematode (Meloidogyne incognita) 400 mL are mixed, and a root of healthy tomato seedlings (on the developmental stage of third to fourth true leaf) is transplanted in the soil. After the transplanting, the diluted solution 40 mL is irrigated onto soli of tomato seedlings. After 10 days, the roots are pull out from the soil, washed and the damage degree of the root (root-knot degree) is examined according to a root-knot index by Zeck (Zeck, W. M. (1971): Pflanzenschutz-Nachrichten. Bayer AG, 24, 141-144).
• 0: No root-knots is recognized. • 1: By careful observation, several small root-knots can be recognized. • 2: Several small root-knots can be easily confirmed similarly to 1. • 3: Many small root-knots are found, and some of which are fused. A function of the root is not almost lost. • 4: Many small root-knots are found, and some large ones are found. […]

[6] = test system: northern house mosquitos (Culex pipiens pipiens); assay: Test method 8: coated container contact test, northern house mosquito female adults; type: in vivo; settings: 24 h, read-out: mortality of insects
Experimental: The test compounds are dissolved with acetone containing a surfactant, and the solution was then poured into a container of 20 mL contents, and the solution was coating uniformly in the inner face of the container such that the test compound is made 10 mg/m^2, and the surfactant is made 40 mg/m^2, and the container is dried.
Five (5) of female adult of northern house mosquitos (Culex pipiens pipiens) are placed in the contained, and the contained is put the lid. After the passing of the prescribed times, the state of the northern house mosquitos are examined, and the mortality is calculated by the following equation.

[7] = test system: cotton worm (Spodoptera litura); assay: Test method 2: foliar spray on cabbage seedling, cotton worm larvae; type: in vivo; settings: 144 h, read-out: mortality of insects
Experimental: as §1
(§2) Cabbage (Brassicae oleracea) seedling (on the developmental stage of the third to fourth true leaf) is planted in a cup, and the diluted solutions are sprayed into the seedling at a ratio of 20 mL/seedling. Thereafter, ten (10) cotton worm (Spodoptera litura) at the third instar larval stage are released. After 6 days, the number of the surviving insects is counted, and the mortality of insects is calculated by the following equation.

[8] = test system: cotton worm (Spodoptera litura); assay: Test method 1: foliar spray on cabbage seedling, cotton worm larvae; type: in vivo; settings: 144 h, read-out: mortality of insects
Experimental: The test compounds are made to a formulation according to a similar method to that described in the Formulation Example 5, and thereto is added water containing 0.03 v/v % of Shindain (registered trademark) to prepare a diluted solution containing a prescribed concentration of the test compound.
as §2

## CC1=CC(=O)[C@H]2CC(=O)[C@H]3[C@](C)([C@@H]2C1)[C@H](Cl)[C@@]12OC(=O)C[C@]3(C)[C@]1(C)CC[C@]13C[C@@H](C)C[C@H](CN12)O3 [AA-1]
[1]
  mortality at 200 ppm: ≥ 90%
[2]
  mortality at 200 ppm: ≥ 90%
[3]
  mortality at 200 ppm: ≥ 90%
[4]
  mortality at 200 ppm: ≥ 90%
[5]; 20 mL mixed with 400 mL soil plus 40 mL irrigation, tomato seedlings, after 10 days, untreated group index 4
  root-knot index: 1 (By careful observation, several small root-knots can be recognized.)
[5]; versus untreated group
  formation of root-knot: reduced a formation of root-knot
[6]
  mortality at 10 mg/m2: ≥ 80%
[7]
  mortality at 200 ppm: ≥ 80%
[8]
  mortality at 200 ppm: ≥ 80%

From US20250160330A1, “METHOD FOR CONTROLLING HARMFUL ARTHROPODS OR HARMFUL NEMATODES USING ZOANTHAMINE ANALOG” (SUMITOMO CHEMICAL COMPANY, LIMITED, priority 2022, published 2025)
